Measurements taken from patent US20240067632A1, “WEE1 Degrading Compounds and Uses Thereof” (Bristol-Myers Squibb Company, priority 2022, published 2024).
Like-named read-outs stand apart in the source and are kept apart here.

Tests used:
[1] = biological target: T1, WEE1 (Homo sapiens, UniProt P30291+Q96SW2); experiment: WEE1-ePL degradation assay (LentiX-WEE1-ePL-GSPT1-ND cells, InCELL Hunter luminescence, 4 h); format: cell-based; conditions: 293T-LentiX WEE1-ePL cells; for DC50: read-out: 293T-LentiX WEE1-ePL Degradation 4 hr (EC50)
T1 construct: C-terminal ePL-tagged (DiscoverX, Fremont, CA) full-length WEE1 expression construct; expressed in transfected cells; host or cells: LentiX-HEK293T (Invitrogen), lentiviral transduction; co-expressing GSPT1-GN (G576N, lacking the first 158 amino acids)
Outline: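 LentiX-HEK293T cells stably expressing C-terminally ePL-tagged full-length WEE1 were treated with compounds in a 10-point, 3-fold dilution series starting at 1 uM or 10 uM for 4 h at 37 °C. Remaining WEE1-ePL was detected by InCELL Hunter luminescence, and EC50, Ymin and Ymax came from a four-parameter logistic fit against DMSO control.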

[2] = system: MKN45 cells; experiment: MKN45 cell proliferation assay (Cell-Titer-Glo, 120 h); format: cell-based; conditions: for EC50: Homo sapiens, MKN-45, 120 h, Cell-Titer-Glo, read-out: MKN45 Cell Prolif. 120 hr (EC50); for MKN45 Cell Prolif. 120 hr (Ymin-Obs): minimal percent of DMSO control observed in the concentrations tested
Outline: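 Cells seeded at 400/well onto pre-printed 10-point half-log dilutions (top 1 or 10 uM, 0.1% DMSO final), in triplicate, and grown 120 h at 37 C. Viability by Cell-Titer-Glo luminescence, blank-subtracted and normalised to DMSO; EC50 from four-parameter logistic fit, with observed minimal % of control recorded as Ymin-obs.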

[3] = lower limit of the fit (0 = luciferase inhibitor, Ymax = DMSO control)
[4] = lower limit of the fit (Ymin=0 luciferase inhibitor, Ymax DMSO control)

Row | Structure (SMILES) | 293T-LentiX WEE1-ePL Degradation 4 hr (Ymin) [1, 3] | EC50 ([2]; growth inhibition) [nM] | DC50 [1] [nM] | 293T-LentiX WEE1-ePL Degradation 4 hr (Ymin) [1, 4] | EC50 [2] [nM] | MKN45 Cell Prolif. 120 hr (Ymin-Obs) [2]
1 | O=C1CCC(N2Cc3ccc(O[C@H]4CCN(Cc5ccc6ncccc6c5)C4)cc3C2=O)C(=O)N1 (stereo partly drawn) [3-(1-oxo-6-{[(3S)-1-[(quinolin-6-yl)methyl]pyrrolidin-3-yl]oxy}-2,3-dihydro-1H-isoindol-2-yl)piperidine-2,6-dione] | 88.79 | 14.6 |  |  |  | 82.37
2 | Cc1ccc2cc(CN3CC[C@H](Oc4ccc5c(c4)CN(C4CCC(=O)NC4=O)C5=O)[C@H]3C)ccc2n1 (stereo partly drawn) [3-(5-{[(2R,3S)-2-methyl-1-[(2-methylquinolin-6-yl)methyl]pyrrolidin-3-yl]oxy}-1-oxo-2,3-dihydro-1H-isoindol-2-yl)piperidine-2,6-dione] | 34 | 339 | 16.7 |  |  | 28.935
3 | Cc1ccc2cc(CN3CC[C@H](Oc4ccc5c(c4)CN(C4CCC(=O)NC4=O)C5=O)[C@@H]3C)ccc2n1 (stereo partly drawn) [3-(5-{[(2S,3S)-2-methyl-1-[(2-methylquinolin-6-yl)methyl]pyrrolidin-3-yl]oxy}-1-oxo-2,3-dihydro-1H-isoindol-2-yl)piperidine-2,6-dione] | 99.5 | > 10000 |  |  |  | 87.455
4 | O=C1CCC(N2Cc3cc(O[C@@H]4CN(Cc5ccc6nc([C@H]7CCOC7)ccc6c5)CC4(F)F)ccc3C2=O)C(=O)N1 (stereo partly drawn) [3-(5-{[(3R)-4,4-difluoro-1-({2-[(3R)-oxolan-3-yl]quinolin-6-yl}methyl)pyrrolidin-3-yl]oxy}-1-oxo-2,3-dihydro-1H-isoindol-2-yl)piperidine-2,6-dione] |  |  | 8.49 | 30.81 | 8.42 | 8.764
5 | O=C1CCC(N2Cc3cc(O[C@@H]4CN(Cc5ccc6nc([C@@H]7CCOC7)ccc6c5)CC4(F)F)ccc3C2=O)C(=O)N1 (stereo partly drawn) [3-(5-{[(3R)-4,4-difluoro-1-({2-[(3S)-oxolan-3-yl]quinolin-6-yl}methyl)pyrrolidin-3-yl]oxy}-1-oxo-2,3-dihydro-1H-isoindol-2-yl)piperidine-2,6-dione] |  |  | 8.39 | 30.61 | 9.93 | 9.159

More lines, main results first:

Row | 293T-LentiX WEE1-ePL Degradation 4 hr (Ymin) [1, 3] | EC50 ([2]; growth inhibition) [nM] | DC50 [1] [nM] | 293T-LentiX WEE1-ePL Degradation 4 hr (Ymin) [1, 4] | EC50 [2] [nM] | Structure (SMILES) | MKN45 Cell Prolif. 120 hr (Ymin-Obs) [2]
6 | 27.9 | 21.3 | 39.1 |  |  | O=C1CCC(N2Cc3cc(O[C@@H]4CN(Cc5ccc6nc(C7CCOCC7)ccc6c5)CC4(F)F)ccc3C2=O)C(=O)N1 (stereo partly drawn) [3-(5-{[(3R)-4,4-difluoro-1-{[2-(oxan-4-yl)quinolin-6-yl]methyl}pyrrolidin-3-yl]oxy}-1-oxo-2,3-dihydro-1H-isoindol-2-yl)piperidine-2,6-dione] | 10.78
7 |  |  | 8.43 | 34.71 | 18.7 | O=C1CCC(N2Cc3cc(O[C@@H]4CN(Cc5ccc6nc([C@H]7CCOC7)ccc6c5)C[C@H]4F)ccc3C2=O)C(=O)N1 (stereo partly drawn) [3-(5-{[(3R,4R)-4-fluoro-1-({2-[(3R)-oxolan-3-yl]quinolin-6-yl}methyl)pyrrolidin-3-yl]oxy}-1-oxo-2,3-dihydro-1H-isoindol-2-yl)piperidine-2,6-dione] | 20.39
8 | 29.32 | 29.1 | 9.69 |  |  | O=C1CCC(N2Cc3cc(O[C@@H]4CN(Cc5ccc6nc([C@@H]7CCOC7)ccc6c5)C[C@H]4F)ccc3C2=O)C(=O)N1 (stereo partly drawn) [3-(5-{[(3R,4R)-4-fluoro-1-({2-[(3S)-oxolan-3-yl]quinolin-6-yl}methyl)pyrrolidin-3-yl]oxy}-1-oxo-2,3-dihydro-1H-isoindol-2-yl)piperidine-2,6-dione] | 20.1
9 | 36.81 | 28.6 | 14.6 |  |  | O=C1CCC(N2Cc3cc(O[C@@H]4CN(Cc5ccc6nc(C7CCOCC7)ccc6c5)C[C@H]4F)ccc3C2=O)C(=O)N1 (stereo partly drawn) [3-(5-{[(3R,4R)-4-fluoro-1-{[2-(oxan-4-yl)quinolin-6-yl]methyl}pyrrolidin-3-yl]oxy}-1-oxo-2,3-dihydro-1H-isoindol-2-yl)piperidine-2,6-dione] | 30.89
